According to US8871681B2, “Herbicidal compositions comprising 4-amino-3-chloro-5-fluoro-6-(4-chloro-2-fluoro-3-methoxyphenyl) pyridine-2-carboxylic acid or a derivative thereof and certain sulfonylureas” (Dow AgroSciences LLC, priority 2012, dated 2014):

Columns and labels:
[1] = tested on: VIOTR (Viola tricolor, wild pansy); assay: Post-emergence foliar-applied weed control in cereal crops, greenhouse (Example III); format: in vivo, Viola tricolor (L.); details: 8.75 gai/ha alone
Description: (§1) Seeds of the desired test plant species were planted in Sun Gro MetroMix® 306 planting mixture, which typically has a pH of 6.0 to 6.8 and an organic matter content of about 30 percent, in plastic pots with a surface area of 103.2 square centimeters (cm^2). When required to ensure good germination and healthy plants, a fungicide treatment and/or other chemical or physical treatment was applied. The plants were grown for 7-36 days in a greenhouse with an approximate 14 hour photoperiod which was maintained at about 18° C. during the day and 17° C. during the night. Nutrients and water were added on a regular basis and supplemental lighting was provided with overhead metal halide 1000-Watt lamps as necessary. The plants were employed for testing when they reached the second or third true leaf stage.
Treatments consisted of the benzyl ester of 4-amino-3-chloro-5-fluoro-6-(4-chloro-2-fluoro-3-methoxy-phenyl)pyridine-2-carboxylic acid (Compound A), formulated as an SC (suspension concentrate), and a second cereal herbicide alone and in combination.
Measured aliquot of benzyl ester of 4-amino-3-chloro-5-fluoro-6-(4-chloro-2-fluoro-3-methoxy-phenyl)pyridine-2-carboxylic acid (Compound A) was placed in 25 milliliter (mL) glass vials and diluted in a volume of 1.25% (v/v) Agri-dex crop oil concentrated to obtain stock solutions. Compound requirements are based upon a 12 mL application volume at a rate of 187 liters per hectare (L/ha). Spray solutions of the second cereal herbicide and experimental compound mixtures were prepared by adding the stock solutions to the appropriate amount of dilution solution to form 12 mL spray solution with active ingredients in two- and three-way combinations. Formulated compounds were applied to the plant material with an overhead Mandel track sprayer equipped with an 8002E nozzle calibrated to deliver 187 L/ha over an application area of 0.503 square meters (m^2) at a spray height of 18 inches (46 cm) above average plant canopy. Control plants were sprayed in the same manner with the solvent blank.
The treated plants and control plants were placed in a greenhouse as described above and watered by sub-irrigation to prevent wash-off of the test compounds. After 20-22 days, the condition of the test plants as compared with that of the control plants was determined visually and scored on a scale of 0 to 100 percent where 0 corresponds to no injury and 100 corresponds to complete kill.
Colby's equation was used to determine the herbicidal effects expected from the mixtures (Colby, S. R. 1967. Calculation of the synergistic and antagonistic response of herbicide combinations. Weeds 15:20-22.).
The following equation was used to calculate the expected activity of mixtures containing two active ingredients, A and B: Expected=A+B−(A×B/100)

[2] = tested on: CASOB (Cassia obtusifolia, sicklepod); assay: Post-emergence herbicidal activity of mixtures in forage crops, greenhouse (Example IV); format: in vivo, Cassia obtusifolia L.; details: Table 58 (forage), foliar-applied, after approximately 21 days
Description: as §1, with “Seeds or root cuttings” for “Seeds”, “126.6” for “103.2”, “14-60” for “7-36”, “approximately 28°” for “about 18°”, “24°” for “17°”, “BBCH13 to BBCH23” for “second or third true”
Treatments consisted of the benzyl ester of 4-amino-3-chloro-5-fluoro-6-(4-chloro-2-fluoro-3-methoxy-phenyl)pyridine-2-carboxylic acid (Compound A), formulated as a SC, and a second herbicide alone and in combination.
A measured aliquot of Compound A was placed in 25 milliliter (mL) glass vial and diluted in a volume of 1.25% (v/v) Agri-dex crop oil concentrated to obtain stock solutions. Compound requirements are based upon a 12 mL application volume at a rate of 187 liters per hectare (L/ha). Spray solutions of the second cereal herbicide and experimental compound mixtures were prepared by adding the stock solutions to the appropriate amount of dilution solution to form 12 mL spray solution with active ingredients in two- and three-way combinations. […]
The treated plants and control plants were placed in a greenhouse as described above and watered by sub-irrigation to prevent wash-off of the test compounds. After approximately 21 days, the condition of the test plants, as compared with that of the control plants, was determined visually and scored on a scale of 0 to 100 percent where 0 corresponds to no injury and 100 corresponds to complete kill. […]

COc1c(Cl)ccc(-c2nc(C(=O)OCc3ccccc3)c(Cl)c(N)c2F)c1F [Compound A Benzyl Ester]
Weed Control VIOTR Obs ([1]; Table 52, after 20-22 days): 50% | Weed Control VIOTR Obs ([1]; Table 54, after 20-22 days): 50% | Weed Control CASOB Obs ([2]; 2.2 gai/ha alone): 33% | Weed Control CASOB Obs ([2]; 4.4 gai/ha alone): 38%
